Laboratory results published in patent US7674819B2 (Warner-Lambert Company LLC, priority 2005, dated 2010).
Where a chain is given by its changes, count along the chain named. Like-named read-outs stand apart in the source and are kept apart here.

Experiments:
hAR = target: T1, hAR (Homo sapiens, UniProt P10275); test: Competitive binding of 3H-DHT to baculovirus/Sf9 generated hAR extracts; settings: one hour at 4° C., mean of multiple tests
T1 sequence (P10275 1-920): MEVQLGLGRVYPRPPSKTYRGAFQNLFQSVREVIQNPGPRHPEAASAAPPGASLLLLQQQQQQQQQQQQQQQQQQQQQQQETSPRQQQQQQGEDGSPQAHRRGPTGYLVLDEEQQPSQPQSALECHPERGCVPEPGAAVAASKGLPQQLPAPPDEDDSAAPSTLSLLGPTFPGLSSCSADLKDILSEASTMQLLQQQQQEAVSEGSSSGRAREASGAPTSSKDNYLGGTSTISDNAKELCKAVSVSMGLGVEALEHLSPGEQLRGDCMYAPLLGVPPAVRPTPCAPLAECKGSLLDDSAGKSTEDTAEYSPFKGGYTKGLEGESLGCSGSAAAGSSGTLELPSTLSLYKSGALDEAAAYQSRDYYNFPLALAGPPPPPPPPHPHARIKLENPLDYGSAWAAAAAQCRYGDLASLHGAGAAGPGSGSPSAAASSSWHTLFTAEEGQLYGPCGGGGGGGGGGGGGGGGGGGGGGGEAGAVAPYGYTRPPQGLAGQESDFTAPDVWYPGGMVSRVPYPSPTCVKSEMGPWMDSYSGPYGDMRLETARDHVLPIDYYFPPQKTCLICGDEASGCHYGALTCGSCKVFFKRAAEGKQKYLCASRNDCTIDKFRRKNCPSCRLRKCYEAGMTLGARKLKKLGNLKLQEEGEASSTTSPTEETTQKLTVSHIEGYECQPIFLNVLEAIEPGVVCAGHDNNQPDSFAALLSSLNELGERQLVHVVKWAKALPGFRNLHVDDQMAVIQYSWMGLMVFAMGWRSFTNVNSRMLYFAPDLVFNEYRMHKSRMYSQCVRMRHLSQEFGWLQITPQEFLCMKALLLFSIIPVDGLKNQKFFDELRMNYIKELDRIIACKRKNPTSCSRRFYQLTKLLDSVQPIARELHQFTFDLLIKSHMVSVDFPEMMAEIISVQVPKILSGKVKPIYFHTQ
Method in brief: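 Baculovirus/Sf9-expressed hAR extract incubated with test compound, hydroxylapatite and 1 nM 3H-DHT tracer for 1 h at 4° C, then washed free of unbound tracer. Affinity given as concentration inhibiting half of maximal 3H-DHT binding.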

androgen receptor = target: T2, androgen receptor (Homo sapiens, UniProt P10275); test: AR Antagonist Cell Assay (MDA-MB453-MMTV clone 54-19, luciferase reporter); format: cell-based; settings: inhibition of induction by DHT (final concentration at 100 μM), 17 hr, compound 0.32-1000 nM, mean of multiple tests
T2 sequence (P10275 1-920 Q868H): T1 sequence (P10275 1-920) with Q868H
Method in brief: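 MDA-MB453 breast tumour cells stably carrying an ARE-containing MMTV promoter driving firefly luciferase, plated overnight at 37° C in charcoal-treated serum medium. DHT added (final […]) and incubated 17 hr at 37° C. Luminescence read after adding luciferase buffer; values are means of multiple tests.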

[1] = concentration at which one half of maximum binding of 1 nM 3H-DHT to hAR is inhibited, read-out: IC50
[2] = IC50, concentration at which one half of maximum binding of 1 nM 3H-DHT to hAR is inhibited

Structure (SMILES) | IC50 (hAR; [1]) [µM] | IC50 (androgen receptor; read-out: IC50) [µM] | IC50 (hAR; [2]) [µM] | IC50 (androgen receptor) [µM]
Cc1ccsc1S(=O)(=O)N1CC(C)(C)C(Oc2ccc(C#N)c(C(F)(F)F)c2)C1=O (stereo not shown) [Example 87, 4-[4,4-Dimethyl-1-(3-methyl-thiophene-2-sulfonyl)-2-oxo-pyrrolidin-3-yloxy]-2-trifluoromethyl-benzonitrile] | 0.115 | 0.502 |  | 
CC1(C)CN(S(=O)(=O)c2cccc(C#N)c2)C(=O)C1Oc1ccc(C#N)c(C(F)(F)F)c1 (stereo not shown) [Example 88, 4-[1-(3-Cyano-benzenesulfonyl)-4,4-dimethyl-2-oxo-pyrrolidin-3-yloxy]-2-trifluoromethyl-benzonitrile] | 0.11 | 0.134 |  | 
CC1(C)CN(S(=O)(=O)c2cccs2)C(=O)C1Oc1ccc(C#N)c(C(F)(F)F)c1 (stereo not shown) [Example 93, 4-[4,4-Dimethyl-2-oxo-1-(thiophene-2-sulfonyl)-pyrrolidin-3-yloxy]-2-trifluoromethyl-benzonitrile] |  | > 1 | 0.082 | 
Cc1ccccc1S(=O)(=O)N1CC(C)(C)C(Oc2ccc(C#N)c(C(F)(F)F)c2)C1=O (stereo not shown) [Example 94, 4-[4,4-Dimethyl-2-oxo-1-(toluene-2-sulfonyl)-pyrrolidin-3-yloxy]-2-trifluoromethyl-benzonitrile] | 0.15 | > 1 |  | 
CC1(C)CN(S(=O)(=O)c2cccc(O)c2)C(=O)C1Oc1ccc(C#N)c(C(F)(F)F)c1 (stereo not shown) [Example 95, 4-[1-(3-Hydroxy-benzenesulfonyl)-4,4-dimethyl-2-oxo-pyrrolidin-3-yloxy]-2-trifluoromethyl-benzonitrile] |  | > 1 | 0.008 | 
CC1(C)CN(C2CCCC2)C(=O)C1Oc1ccc(C#N)c(C(F)(F)F)c1 (stereo not shown) [Example 98, 4-(1-Cyclopentyl-4,4-dimethyl-2-oxo-pyrrolidin-3-yloxy)-2-trifluoromethyl-benzonitrile] | 0.169 | 0.315 |  | 
CSCN1CC(C)(C)C(Oc2ccc(C#N)c(C(F)(F)F)c2)C1=O (stereo not shown) [Example 99, 4-(4,4-Dimethyl-1-methylsulfanylmethyl-2-oxo-pyrrolidin-3-yloxy)-2-trifluoromethyl-benzonitrile] | 0.113 |  |  | 0.036
CC1(C)CN(C(=O)Cc2ccccc2)C(=O)C1Oc1ccc(C#N)c(C(F)(F)F)c1 (stereo not shown) [Example 101, 4-(4,4-Dimethyl-2-oxo-1-phenylacetyl-pyrrolidin-3-yloxy)-2-trifluoromethyl-benzonitrile] | 0.174 | 0.083 |  | 
CC1(C)CN(C(=O)c2ccc(C#N)cc2)C(=O)C1Oc1ccc(C#N)c(C(F)(F)F)c1 (stereo not shown) [Example 104, 4-[1-(4-Cyano-benzoyl)-4,4-dimethyl-2-oxo-pyrrolidin-3-yloxy]-2-trifluoromethyl-benzonitrile] | 0.248 |  |  | 0.037
CC1(C)CN(C(=O)c2cccc(C#N)c2)C(=O)C1Oc1ccc(C#N)c(C(F)(F)F)c1 (stereo not shown) [Example 107, 4-[1-(3-Cyano-benzoyl)-4,4-dimethyl-2-oxo-pyrrolidin-3-yloxy]-2-trifluoromethyl-benzonitrile] |  | 0.653 | 0.068 | 
COc1cc(OC2C(=O)N(C(C)c3ccccc3)CC2(C)C)ccc1C#N (stereo not shown) [Example 110, 4-[4,4-Dimethyl-2-oxo-1-(1-phenyl-ethyl)-pyrrolidin-3-yloxy]-2-methoxy-benzonitrile] |  | 0.126 | 0.087 | 
CC1(C)CN(Cc2nnc(-c3ccccc3O)o2)C(=O)C1Oc1ccc(C#N)c(C(F)(F)F)c1 (stereo not shown) [Example 112, 4-{1-[5-(2-Hydroxy-phenyl)-[1,3,4]oxadiazol-2-ylmethyl]-4,4-dimethyl-2-oxo-pyrrolidin-3-yloxy}-2-trifluoromethyl-benzonitrile] |  | 0.198 | 0.085 | 
CC1(C)CN(Cc2nnc(-c3cccc(O)c3)o2)C(=O)C1Oc1ccc(C#N)c(C(F)(F)F)c1 (stereo not shown) [Example 113, 4-{1-[5-(3-Hydroxy-phenyl)-[1,3,4]oxadiazol-2-ylmethyl]-4,4-dimethyl-2-oxo-pyrrolidin-3-yloxy)-2-trifluoromethyl-benzonitrile] | 0.224 | 0.651 |  | 
CC1(C)CN(Cc2nnc(-c3ccc(O)cc3)o2)C(=O)C1Oc1ccc(C#N)c(C(F)(F)F)c1 (stereo not shown) [Example 114, 4-{1-[5-(4-Hydroxy-phenyl)-[1,3,4]oxadiazol-2-ylmethyl]-4,4-dimethyl-2-oxo-pyrrolidin-3-yloxy}-2-trifluoromethyl-benzonitrile] |  | 0.656 | 0.041 | 
CC1(C)CN(Cc2nnc(-c3cccc(F)c3)o2)C(=O)C1Oc1ccc(C#N)c(C(F)(F)F)c1 (stereo not shown) [Example 115, 4-{1-[5-(3-Fluoro-phenyl)-[1,3,4]oxadiazol-2-ylmethyl]-4,4-dimethyl-2-oxo-pyrrolidin-3-yloxy}-2-trifluoromethyl-benzonitrile] | 0.142 | 0.415 |  | 
CC1(C)CN(Cc2nnc(-c3ccc(F)cc3)o2)C(=O)C1Oc1ccc(C#N)c(C(F)(F)F)c1 (stereo not shown) [Example 116, 4-{1-[5-(4-Fluoro-phenyl)-[1,3,4]oxadiazol-2-ylmethyl]-4,4-dimethyl-2-oxo-pyrrolidin-3-yloxy}-2-trifluoromethyl-benzonitrile] | 0.206 | 0.369 |  | 
Cc1ccc(-c2nnc(CN3CC(C)(C)C(Oc4ccc(C#N)c(C(F)(F)F)c4)C3=O)o2)s1 (stereo not shown) [Example 117, 4-{4,4-Dimethyl-1-[5-(5-methyl-thiophen-2-yl)-[1,3,4]oxadiazol-2-ylmethyl]-2-oxo-pyrrolidin-3-yloxy}-2-trifluoromethyl-benzonitrile] | 0.259 | 0.117 |  | 
COc1cccc(-c2nnc(CN3CC(C)(C)C(Oc4ccc(C#N)c(C(F)(F)F)c4)C3=O)o2)c1 (stereo not shown) [Example 118, 4-{1-[5-(3-Methoxy-phenyl)-[1,3,4]oxadiazol-2-ylmethyl]-4,4-dimethyl-2-oxo-pyrrolidin-3-yloxy}-2-trifluoromethyl-benzonitrile] | 0.17 | 0.381 |  | 
COc1ccc(-c2nnc(CN3CC(C)(C)C(Oc4ccc(C#N)c(C(F)(F)F)c4)C3=O)o2)cc1 (stereo not shown) [Example 119, 4-{1-[5-(4-Methoxy-phenyl)-[1,3,4]oxadiazol-2-ylmethyl]-4,4-dimethyl-2-oxo-pyrrolidin-3-yloxy}-2-trifluoromethyl-benzonitrile] |  | 0.199 | 0.08 | 
COc1ccccc1-c1nnc(CN2CC(C)(C)C(Oc3ccc(C#N)c(C(F)(F)F)c3)C2=O)o1 (stereo not shown) [Example 121, 4-{1-[5-(2-Methoxy-phenyl)-[1,3,4]oxadiazol-2-ylmethyl]-4,4-dimethyl-2-oxo-pyrrolidin-3-yloxy}-2-trifluoromethyl-benzonitrile] | 0.131 | 0.166 |  | 
